Data as given in ChEMBL document CHEMBL3085760, “Novel polyamine analogues: from substrates towards potential inhibitors of monoamine oxidases” (Eur J Med Chem, 2013).
The source made the active and inactive calls. The rule behind the calls is not given here.

Experiments:
[1] = biological target: T1, Amine oxidase [copper-containing] 3 (Homo sapiens) (UniProt Q16853); test: Ratio of relative Vmax to Km for recombinant human VAP-1 assessed as hydrogen peroxide generation rate preincubated for 30 mins by Amplex Red assay relative to control
T1 sequence (whole entry): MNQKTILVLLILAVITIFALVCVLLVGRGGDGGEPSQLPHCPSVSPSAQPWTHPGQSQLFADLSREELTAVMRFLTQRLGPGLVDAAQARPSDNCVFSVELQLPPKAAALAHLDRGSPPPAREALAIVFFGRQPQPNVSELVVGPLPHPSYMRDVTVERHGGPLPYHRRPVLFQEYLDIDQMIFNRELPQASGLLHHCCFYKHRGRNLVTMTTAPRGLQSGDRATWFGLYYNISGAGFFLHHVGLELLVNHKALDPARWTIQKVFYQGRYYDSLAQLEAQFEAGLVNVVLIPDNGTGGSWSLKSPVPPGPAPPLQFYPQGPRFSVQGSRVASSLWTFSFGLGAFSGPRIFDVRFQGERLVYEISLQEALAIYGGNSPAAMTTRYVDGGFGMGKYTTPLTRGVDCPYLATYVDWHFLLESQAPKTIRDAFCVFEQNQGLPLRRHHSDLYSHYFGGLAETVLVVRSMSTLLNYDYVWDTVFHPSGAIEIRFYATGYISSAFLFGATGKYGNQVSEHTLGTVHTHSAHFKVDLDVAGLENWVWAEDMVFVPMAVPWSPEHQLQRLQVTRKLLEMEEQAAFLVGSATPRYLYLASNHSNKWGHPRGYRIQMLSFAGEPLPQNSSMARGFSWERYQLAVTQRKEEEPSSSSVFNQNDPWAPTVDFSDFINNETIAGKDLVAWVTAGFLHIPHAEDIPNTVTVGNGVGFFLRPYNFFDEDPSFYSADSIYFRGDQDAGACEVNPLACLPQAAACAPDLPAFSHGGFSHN

[2] = biological target: T1, Amine oxidase [copper-containing] 3 (Homo sapiens); test: Activity at recombinant human VAP-1 assessed as hydrogen peroxide generation rate per min/mg preincubated for 30 mins by Amplex Red assay relative to control
[3] = biological target: T1, Amine oxidase [copper-containing] 3 (Homo sapiens); test: Ratio of relative Vmax to Km for recombinant human VAP-1 assessed as hydrogen peroxide generation rate using benzylamine as substrate at 200 uM preincubated for 30 mins by Amplex Red assay
[4] = biological target: T1, Amine oxidase [copper-containing] 3 (Homo sapiens); test: Activity at recombinant human VAP-1 assessed as hydrogen peroxide generation rate per min/mg using benzylamine as substrate at 200 uM preincubated for 30 mins by Amplex Red assay relative to control
[5] = biological target: T1, Amine oxidase [copper-containing] 3 (Homo sapiens); test: Activity at recombinant human VAP-1 assessed as hydrogen peroxide generation rate preincubated for 30 mins by Amplex Red assay
Homo sapiens [6] = species on record: Homo sapiens; test: Selectivity ratio of Ki for recombinant human MAO-B to Ki for recombinant human MAO-A
Homo sapiens [7] = species on record: Homo sapiens; test: Selectivity ratio of Ki for recombinant human MAO-A to Ki for recombinant human MAO-B

Row | SMILES | fold change (FC) [1] | fold change (FC) [2] | fold change (FC) [3] | fold change (FC) [4] | Activity [5] | Ratio Ki (Homo sapiens [6]) | Ratio Ki (Homo sapiens [7])
1 | NCCCCCCCCNCCCNCc1cccs1 | 0.09 | 0.38 | – | – | – | – | –
2 | NCCCCCCCCCCCCNCc1ccccc1 | 80 | 1.88 | – | – | – | – | –
3 | NCCCNCCCCNCCCNCc1cccnc1 | – | – | 0.69 | 0.85 | inactive | – | –
4 | c1ccc(CNCCCCCCCCCCCCNCc2ccccc2)cc1 | – | – | 0.35 | 0.89 | – | – | –
5 | NCCCCCCCCCCCCNCc1cccs1 | 35 | 1.77 | – | – | – | – | –
6 | CN(CCCCCCCCCCCCN)Cc1ccccc1 | 30 | 0.73 | – | – | – | – | –
7 | CN(CCCCCCCCCCCCN=C=S)Cc1ccccc1 | – | – | 0.66 | 0.69 | – | 1.8 | –
8 | NCCCNCCCCNCCCNCc1cccs1 | – | – | 0.6 | 1 | inactive | – | 9.8
9 | NCCCNCCCCNCCCN | – | – | 0.96 | 1 | – | – | –
10 | NCCCNCCCCNCCCNCc1ccccc1 | – | – | 0.66 | 0.77 | – | 1.7 | –
11 | NCCCNCCCCNCCCNCc1ccc2ccccc2c1 | – | – | 0.97 | 1.12 | inactive | – | –
12 | NCCCOCCCCOCCCNCc1cccs1 | 0.87 | 0.71 | – | – | – | – | –
